Ends that are not written are not given here.
Tests used:
[1] = test system: TNF-α and IL-1β in RAW 264.7 macrophages; assay: Pro-inflammatory cytokines in macrophages; format: cell-based, mouse
Experimental: To examine cytokine expression elicited by S. aureus CCARM 0027, RAW 264.7 mouse macrophages were cultured in DMEM supplemented with antibiotics ([…] penicillin and 100 μg/mL streptomycin) and 10% fetal calf serum in 12-well plates at 37° C in a humidified chamber with an atmosphere containing 5% CO2. Expression of the pro-inflammatory cytokines TNFα and IL-β was evaluated after the addition of S. aureus CCARM 0027 (1 × 10^6 cfu/mL) for 30 min at […]. After treatment, the RAW 264.7 cells (1 × 10^6 cells/mL) were incubated for an additional 24 h with or without CSP-4 (25, 50, 100, and 200 µg/mL). The cells were then collected and the protein was extracted using PRO-PREP™ protein extraction solution (iNtRON Biotechnology, Gyeonggi-do, Korea).
RAW 264.7 cells (1 × 10^6 cells/mL) were seeded into a 12-well plate and incubated for 24 h as described above. […] The levels of pro-inflammatory cytokines in the supernatants were determined after 12 h using mouse anti-TNF-α and anti-IL-1β antibodies based on absorbance at 450 nm using a microplate reader (VERSA Max microplate reader, Molecular Devices). Cytokine concentrations were also determined using TNF-α and IL-1β enzyme-linked immunosorbent assay kits (Koma Biotech, Seoul, Korea). […]

[2] = test system: hRBCs; format: cell-based, human; details: 400 μM peptide, PBS buffer containing 8% hRBCs, 1 h, 37° C, microscope
Experimental: (§1) www.oncotarget.com Oncotarget, Supplementary Materials
(§2) New antimicrobial peptide kills drug-resistant pathogens without […]
(§3) Supplementary Figure 1: The hemolytic activities of peptides were tested using hRBCs, and cytotoxicity was tested using a human keratinocyte line (HaCaT cells). The cells were treated with 400 μM peptide in PBS buffer containing 8% hRBCs (v/v). The samples were then incubated with mild agitation for 1 h at 37° C, and then spun down at 800 × g for 10 min. Changes in hRBC morphology were examined under a microscope. Cells were treated with 400 μM rhodamine-labeled peptides. HaCaT cells were seeded at 4 × 10^3 cells/well and then incubated for 24 h, treated with rhodamine-labeled peptide and incubated for an additional 24 h at 37° C in a humidified chamber under an atmosphere containing 5% CO2. The cells were examined under an inverted fluorescence phase contrast microscope. Scale bar, 100 μm.
(§4) (1 picture or pasted object on this page, not shown here)

[3] = test system: HaCaT cells; format: cell-based, human; details: 400 μM rhodamine-labeled peptide, 24 h, 37° C, fluorescence microscope
Experimental: as §1, §2, §3, §4

[4] = test system: E. coli LPS; assay: Peptide-LPS binding affinity assay (dansyl polymyxin B); details: LPS 9 µg, 2.5 μM dansyl polymyxin B, 5 mM HEPES buffer pH 7.4, peptide 0.4 to 4 μM
Experimental: Lipoteichoic acid (LTA) and lipopolysaccharide (LPS) binding affinity assays were performed using a Perkin-Elmer LS55 fluorometer (Waltham, MA, USA). S. aureus LTA and E. coli LPS (9 µg) were incubated with 2.5 μM dansyl-polymyxin B in 5 mM HEPES buffer for 5–10 min at pH 7.4. The CSP-4 peptide was added in 0.4 μM increments from 0.4 to 4 μM. The increase in fluorescence intensity was assessed using a spectrofluorometer at an excitation wavelength of 340 nm and an emission wavelength of 482 nm (Perkin-Elmer LS55).

[5] = test system: E. coli; assay: Membrane depolarization (DiSC3-5); format: cell-based; details: ex 622 nm, em 670 nm
Experimental: The membrane depolarizing activities of the peptides were evaluated in E. coli cells using the membrane potential-sensitive fluorescent dye DiSC3-5 (3,3′-dipropylthiadicarbocyanine iodide). Two batches of bacterial cells (experiment and control) were grown to mid-log phase at 37° C, harvested, and washed three times with buffer A (20 mM glucose, 5 mM HEPES [pH 7.2]). The cells were then resuspended to an A600 of 0.05 in buffer A containing 0.1 M KCl, after which DiSC3-5 was added to a final concentration of […] and the mixture was incubated for 60 min until the fluorescence level stabilized. The peptides were then added to bacterial suspensions, and the changes in fluorescence were continuously recorded (excitation at 622 nm and emission at 670 nm) for 30 min [36].

FLRFIGSVKHGKGHLVHHIGVAL-NH2 [CSP-4]
TNF-α and IL-1β levels ([1]; RAW 264.7 cells exposed to S. aureus CCARM 0027 (1 × 10^6 cfu/mL), CSP-4 25, 50, 100, and 200 μg/mL, ELISA): significantly decreased
TNF-α and IL-1β levels ([1]; RAW 264.7 cells treated with 1 μg/mL S. aureus LTA, CSP-4 100 µg/mL, immunocytochemistry): reduced TNF-α and IL-1β levels
Membrane damage of hRBCs [2]: no detectable hemolytic or membrane-binding activity
Binding to the cell membrane of HaCaT cells [3]: no detectable hemolytic or membrane-binding activity
Binding to LPS (fluorescence of dansyl polymyxin B) [4]: dose-dependent increase in fluorescence intensity
Membrane depolarization (DisC3–5 fluorescence) [5]: dose-dependent disruption and resultant depolarization

Source: article PMC5884652, “New antimicrobial peptide kills drug-resistant pathogens without detectable resistance” (Oncotarget, 2018)
